Among the data in US9890156B2, “Bicyclic heterocycles as FGFR4 inhibitors” (Incyte Corporation, priority 2015, dated 2018) are IC50 values, retold here.

One assay concerns the target FGFR1 (Homo sapiens (Human), UniProt P11362). Put plainly: FGFR Enzymatic Assay (FRET, peptide phosphorylation), FGFR1. The settings on record: read-out: FGFR1 IC50; pre-incubated for 4 hours; ATP 210 uM.
The target in a further assay is FGFR4 (Homo sapiens (Human), UniProt P22455). Put plainly: FGFR Enzymatic Assay (FRET, peptide phosphorylation), FGFR4.
Sequence of FGFR4 (P22455 22-802): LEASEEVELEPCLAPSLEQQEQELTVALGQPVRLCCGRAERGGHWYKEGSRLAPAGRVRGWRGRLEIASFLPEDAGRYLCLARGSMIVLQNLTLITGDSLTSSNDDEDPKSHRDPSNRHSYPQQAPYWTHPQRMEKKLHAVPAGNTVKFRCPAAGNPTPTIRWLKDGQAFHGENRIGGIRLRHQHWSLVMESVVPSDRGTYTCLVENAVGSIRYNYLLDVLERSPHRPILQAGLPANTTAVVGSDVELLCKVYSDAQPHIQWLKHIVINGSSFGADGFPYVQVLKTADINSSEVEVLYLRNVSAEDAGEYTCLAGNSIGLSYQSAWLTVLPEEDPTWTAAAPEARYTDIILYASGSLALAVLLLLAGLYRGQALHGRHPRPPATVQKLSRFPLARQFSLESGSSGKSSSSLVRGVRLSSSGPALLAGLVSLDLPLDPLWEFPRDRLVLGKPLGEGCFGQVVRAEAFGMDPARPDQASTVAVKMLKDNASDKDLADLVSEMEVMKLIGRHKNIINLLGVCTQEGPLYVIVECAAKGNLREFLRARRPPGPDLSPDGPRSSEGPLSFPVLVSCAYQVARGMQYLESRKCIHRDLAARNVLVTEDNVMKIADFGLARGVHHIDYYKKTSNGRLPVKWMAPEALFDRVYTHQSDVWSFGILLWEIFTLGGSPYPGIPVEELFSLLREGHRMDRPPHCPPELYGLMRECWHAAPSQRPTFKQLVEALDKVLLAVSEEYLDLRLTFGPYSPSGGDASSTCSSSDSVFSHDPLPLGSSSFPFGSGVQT
For the next assay, the target named is FGFR2 (Homo sapiens (Human), UniProt P21802). Put plainly: FGFR Enzymatic Assay (FRET, peptide phosphorylation), FGFR2. Conditions: read-out: FGFR2 IC50; pre-incubated for 4 hours; ATP 100 uM.
Sequence of FGFR2 (P21802 22-821): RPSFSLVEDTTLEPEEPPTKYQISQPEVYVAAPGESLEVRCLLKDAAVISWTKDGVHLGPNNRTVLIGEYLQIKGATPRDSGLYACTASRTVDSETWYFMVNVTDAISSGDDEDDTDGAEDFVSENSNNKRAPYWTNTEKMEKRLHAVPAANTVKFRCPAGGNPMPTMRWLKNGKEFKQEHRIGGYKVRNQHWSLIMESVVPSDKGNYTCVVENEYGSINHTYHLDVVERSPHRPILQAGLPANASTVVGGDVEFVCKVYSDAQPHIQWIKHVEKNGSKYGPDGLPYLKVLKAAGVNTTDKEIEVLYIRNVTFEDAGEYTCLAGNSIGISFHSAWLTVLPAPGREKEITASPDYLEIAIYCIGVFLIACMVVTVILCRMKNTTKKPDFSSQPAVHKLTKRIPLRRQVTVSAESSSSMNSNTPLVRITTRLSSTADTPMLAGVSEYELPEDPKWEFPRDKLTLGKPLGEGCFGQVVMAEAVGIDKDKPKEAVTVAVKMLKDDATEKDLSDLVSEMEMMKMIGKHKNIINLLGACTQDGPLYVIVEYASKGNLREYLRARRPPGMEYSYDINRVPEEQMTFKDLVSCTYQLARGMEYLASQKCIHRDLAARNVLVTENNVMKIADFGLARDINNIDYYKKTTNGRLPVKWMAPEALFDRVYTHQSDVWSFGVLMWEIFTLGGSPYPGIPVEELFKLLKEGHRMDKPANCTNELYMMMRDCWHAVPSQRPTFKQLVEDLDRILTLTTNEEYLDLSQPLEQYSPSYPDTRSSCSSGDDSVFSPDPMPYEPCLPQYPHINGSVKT
In a further assay the target is FGFR3 (Homo sapiens (Human), UniProt P22607). Description: FGFR Enzymatic Assay (FRET, peptide phosphorylation), FGFR3. Conditions: pre-incubated for 4 hours; ATP 140 μM. It counts as biochemical.
Sequence of FGFR3 (P22607 23-806): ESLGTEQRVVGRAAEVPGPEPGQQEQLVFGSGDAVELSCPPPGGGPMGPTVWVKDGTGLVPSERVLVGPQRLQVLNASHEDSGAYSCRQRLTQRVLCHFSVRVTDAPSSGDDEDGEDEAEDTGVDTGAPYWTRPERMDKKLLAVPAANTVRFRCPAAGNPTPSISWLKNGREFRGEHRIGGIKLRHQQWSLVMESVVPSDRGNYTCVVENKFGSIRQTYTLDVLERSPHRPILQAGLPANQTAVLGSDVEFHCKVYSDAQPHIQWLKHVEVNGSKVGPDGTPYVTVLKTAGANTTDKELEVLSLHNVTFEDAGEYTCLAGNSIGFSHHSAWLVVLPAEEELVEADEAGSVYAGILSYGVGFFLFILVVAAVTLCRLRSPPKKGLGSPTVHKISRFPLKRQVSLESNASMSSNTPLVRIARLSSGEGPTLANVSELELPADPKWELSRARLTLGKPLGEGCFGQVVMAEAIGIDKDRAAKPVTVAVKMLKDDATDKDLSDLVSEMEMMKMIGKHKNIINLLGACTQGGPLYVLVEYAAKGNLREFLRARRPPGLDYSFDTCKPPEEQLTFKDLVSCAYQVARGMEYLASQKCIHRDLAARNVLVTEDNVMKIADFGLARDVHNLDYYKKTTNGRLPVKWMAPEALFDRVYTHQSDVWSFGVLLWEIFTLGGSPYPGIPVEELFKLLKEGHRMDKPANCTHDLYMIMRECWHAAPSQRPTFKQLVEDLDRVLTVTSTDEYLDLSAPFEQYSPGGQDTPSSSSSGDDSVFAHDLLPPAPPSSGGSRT
Where [1] appears, read: read-out: FGFR4 IC50, pre-incubated for 4 hours, ATP 600 uM.

SMILES strings stand for the structures. Like-named read-outs stand apart in the source and are kept apart here.

Sequence of FGFR1 (P11362 22-822): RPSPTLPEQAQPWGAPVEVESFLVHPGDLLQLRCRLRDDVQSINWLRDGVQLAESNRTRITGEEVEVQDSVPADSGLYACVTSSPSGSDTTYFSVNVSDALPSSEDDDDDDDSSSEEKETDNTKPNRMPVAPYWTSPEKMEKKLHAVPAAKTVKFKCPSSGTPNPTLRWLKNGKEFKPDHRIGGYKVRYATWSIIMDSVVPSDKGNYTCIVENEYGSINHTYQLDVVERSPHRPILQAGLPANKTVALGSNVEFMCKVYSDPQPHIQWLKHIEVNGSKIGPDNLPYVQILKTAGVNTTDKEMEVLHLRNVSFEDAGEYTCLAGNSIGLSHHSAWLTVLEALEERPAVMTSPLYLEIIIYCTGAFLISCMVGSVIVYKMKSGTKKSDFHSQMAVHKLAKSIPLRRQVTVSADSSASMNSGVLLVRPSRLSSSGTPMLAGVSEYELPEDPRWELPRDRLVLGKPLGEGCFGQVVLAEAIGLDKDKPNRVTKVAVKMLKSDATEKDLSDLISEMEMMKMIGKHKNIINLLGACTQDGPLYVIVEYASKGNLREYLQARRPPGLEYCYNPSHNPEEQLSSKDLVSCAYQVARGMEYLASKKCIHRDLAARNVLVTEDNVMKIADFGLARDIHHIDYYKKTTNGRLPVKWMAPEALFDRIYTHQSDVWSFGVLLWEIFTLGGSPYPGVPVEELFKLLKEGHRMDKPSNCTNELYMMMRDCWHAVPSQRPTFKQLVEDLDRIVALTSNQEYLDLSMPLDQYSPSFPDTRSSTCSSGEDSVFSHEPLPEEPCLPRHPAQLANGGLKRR

Broadly, the IC50 is the concentration needed to halve the response being measured. On to `C=CC(=O)NCc1cc2c(cn1)CN(c1c(F)c(OC)cc(OC)c1F)C(=O)N2CC(F)F` [Example 14, N-((3-(2,6-difluoro-3,5-dimethoxyphenyl)-1-(2,2-difluoroethyl)-2-oxo-1,2,3,4-tetrahydropyrido[4,3-d]pyrimidin-7-yl)methyl)acrylamide], for which the IC50 at FGFR1 was more than 0.2 µM; at FGFR4 (setting [1]), less than 0.01 µM; at FGFR2 it was more than 0.2 µM; at FGFR3 it was more than 0.2 µM.
Take `C=CC(=O)NCc1cc2c(cn1)CN(c1c(F)c(OC)cc(OC)c1F)C(=O)N2c1cccnc1` [Example 3, N-((3-(2,6-difluoro-3,5-dimethoxyphenyl)-2-oxo-1-(pyridin-3-yl)-1,2,3,4-tetrahydropyrido[4,3-d]pyrimidin-7-yl)methyl)acrylamide]: the IC50 on FGFR1 is more than 0.2 µM; against FGFR4, 0.01 to 0.03 µM; at FGFR2, more than 0.2 µM; against FGFR3, more than 0.2 µM.
`C=CC(=O)NCc1cc2c(cn1)CN(c1c(F)c(OC)cc(OC)c1F)C(=O)N2Cc1cccc(F)c1` [Example 16, N-((3-(2,6-difluoro-3,5-dimethoxyphenyl)-1-(3-fluorobenzyl)-2-oxo-1,2,3,4-tetrahydropyrido[4,3-d]pyrimidin-7-yl)methyl)acrylamide]: the IC50 fell in the range of 0.03 to 0.2 µM at FGFR1 and 0.01 to 0.03 µM against FGFR4.
Take `C=CC(=O)NCc1cc2c(cn1)CN(c1c(F)c(OC)cc(OC)c1F)C(=O)N2C` [Example 22, N-((3-(2,6-difluoro-3,5-dimethoxyphenyl)-1-methyl-2-oxo-1,2,3,4-tetrahydropyrido[4,3-d]pyrimidin-7-yl)methyl)acrylamide]: the IC50 at FGFR1 was more than 0.2 µM; against FGFR4, 0.01 to 0.03 µM; on FGFR2 it was more than 0.2 µM; against FGFR3, more than 0.2 µM.
Take `C=CC(=O)NCc1cc2c(cn1)CN(c1c(F)c(OC)cc(OC)c1F)C(=O)N2Cc1cccnc1` [Example 17, N-((3-(2,6-difluoro-3,5-dimethoxyphenyl)-2-oxo-1-(pyridin-3-ylmethyl)-1,2,3,4-tetrahydropyrido[4,3-d]pyrimidin-7-yl)methyl)acrylamide]: the half-maximal inhibitory concentration (IC50) at FGFR1 was more than 0.2 µM; against FGFR4 it was 0.01 to 0.03 µM; at FGFR2 it was more than 0.2 µM; against FGFR3 it was more than 0.2 µM.
In the case of `C=CC(=O)NCc1cc2c(cn1)CN(c1c(F)c(OC)cc(OC)c1F)C(=O)N2CC1CCN(C(=O)OC)CC1` [Example 33, methyl 4-((7-(acrylamidomethyl)-3-(2,6-difluoro-3,5-dimethoxyphenyl)-2-oxo-3,4-dihydropyrido[4,3-d]pyrimidin-1(2H)-yl)methyl)piperidine-1-carboxylate], the half-inhibitory concentration (IC50) was more than 0.2 µM at FGFR1, less than 0.01 µM at FGFR4 (setting [1]) and more than 0.2 µM on FGFR2.
For `C=CC(=O)NCc1cc2c(cn1)CN(c1c(F)c(OC)cc(OC)c1F)C(=O)N2CC1CCC1` [Example 30, N-((1-(cyclobutylmethyl)-3-(2,6-difluoro-3,5-dimethoxyphenyl)-2-oxo-1,2,3,4-tetrahydropyrido[4,3-d]pyrimidin-7-yl)methyl)acrylamide], the results for the concentration for half-maximal inhibition (IC50) on FGFR1, on FGFR4 (setting [1]) and against FGFR3 were 0.03 to 0.2 µM, less than 0.01 µM and more than 0.2 µM, respectively.
Take `C=CC(=O)NCc1cc2c(cn1)CN(c1c(F)c(OC)cc(OC)c1F)C(=O)N2CC1CCN(S(C)(=O)=O)CC1` [Example 35, N-((3-(2,6-difluoro-3,5-dimethoxyphenyl)-1-((1-(methylsulfonyl)piperidin-4-yl)methyl)-2-oxo-1,2,3,4-tetrahydropyrido[4,3-d]pyrimidin-7-yl)methyl)acrylamide]: the IC50 on FGFR1 is more than 0.2 µM; at FGFR4 (setting [1]), less than 0.01 µM; at FGFR2, more than 0.2 µM; against FGFR3 it was more than 0.2 µM.
`C=CC(=O)NCc1cc2c(cn1)CN(c1c(F)c(OC)cc(OC)c1F)C(=O)N2C[C@@H]1CCOC1` [Example 31, (S)—N-((3-(2,6-difluoro-3,5-dimethoxyphenyl)-2-oxo-1-((tetrahydrofuran-3-yl)methyl)-1,2,3,4-tetrahydropyrido[4,3-d]pyrimidin-7-yl)methyl)acrylamide]: the IC50 was more than 0.2 µM at FGFR1, less than 0.01 µM on FGFR4 (setting [1]), more than 0.2 µM at FGFR2 and more than 0.2 µM at FGFR3.
In the case of `C=CC(=O)NCc1cc2c(cn1)CN(c1c(F)c(OC)cc(OC)c1F)C(=O)N2c1ccccc1` [Example 6, N-((3-(2,6-difluoro-3,5-dimethoxyphenyl)-2-oxo-1-phenyl-1,2,3,4-tetrahydropyrido[4,3-d]pyrimidin-7-yl)methyl)acrylamide], the IC50 is more than 0.2 µM at FGFR1, 0.01 to 0.03 µM against FGFR4, more than 0.2 µM at FGFR2 and more than 0.2 µM against FGFR3.
As for `C=CC(=O)NCc1ncc2c(n1)C1(CC1)C(=O)N(c1c(F)c(OC)cc(OC)c1F)C2` [Example 4, N-((6′-(2,6-difluoro-3,5-dimethoxyphenyl)-7′-oxo-6′,7′-dihydro-5′H-spiro[cyclopropane-1,8′-pyrido[4,3-d]pyrimidine]-2′-yl)methyl)acrylamide], the concentration for half-maximal inhibition (IC50) was more than 0.2 µM at FGFR1, 0.01 to 0.03 µM at FGFR4, more than 0.2 µM on FGFR2 and more than 0.2 µM against FGFR3.
With `C=CC(=O)NCc1ncc2c(c1C)C1(CC1)C(=O)N(c1c(F)c(OC)cc(OC)c1F)C2` [Example 37, N-((2′-(2,6-difluoro-3,5-dimethoxyphenyl)-5′-methyl-3′-oxo-2′,3′-dihydro-1′H-spiro[cyclopropane-1,4′-[2,7]naphthyridine]-6′-yl)methyl)acrylamide], the half-maximal inhibitory concentration (IC50) at FGFR1 was more than 0.2 µM; at FGFR4, 0.01 to 0.03 µM; on FGFR2 it was more than 0.2 µM; against FGFR3 it was more than 0.2 µM.
In the case of `C=CC(=O)NCc1cc2c(cn1)CN(c1c(F)c(OC)cc(OC)c1F)C(=O)N2CC(C)C` [Example 29, N-((3-(2,6-difluoro-3,5-dimethoxyphenyl)-1-isobutyl-2-oxo-1,2,3,4-tetrahydropyrido[4,3-d]pyrimidin-7-yl)methyl)acrylamide], the 50% inhibitory concentration (IC50) was 0.03 to 0.2 µM on FGFR1, less than 0.01 µM at FGFR4 (setting [1]) and more than 0.2 µM against FGFR3.
On to `C=CC(=O)NCc1cc2c(cn1)CN(c1c(F)c(OC)cc(OC)c1F)C(=O)N2[C@H]1CCOC1` [Example 8, (S)—N-((3-(2,6-difluoro-3,5-dimethoxyphenyl)-2-oxo-1-(tetrahydrofuran-3-yl)-1,2,3,4-tetrahydropyrido[4,3-d]pyrimidin-7-yl)methyl)acrylamide], for which the IC50 is more than 0.2 µM at FGFR1, less than 0.01 µM on FGFR4 (setting [1]), more than 0.2 µM at FGFR2 and more than 0.2 µM at FGFR3.
On to `C=CC(=O)NCc1cc2c(cn1)CN(c1c(F)c(OC)cc(OC)c1F)C(=O)N2Cc1cnn(C)c1` [Example 18, N-((3-(2,6-difluoro-3,5-dimethoxyphenyl)-1-((1-methyl-1H-pyrazol-4-yl)methyl)-2-oxo-1,2,3,4-tetrahydropyrido[4,3-d]pyrimidin-7-yl)methyl)acrylamide], for which the IC50 is 0.03 to 0.2 µM at FGFR1 and less than 0.01 µM on FGFR4 (setting [1]).
Regarding `C=CC(=O)NCc1cc2c(cn1)CN(c1c(F)c(OC)cc(OC)c1F)C(=O)N2CCF` [Example 27, N-((3-(2,6-difluoro-3,5-dimethoxyphenyl)-1-(2-fluoroethyl)-2-oxo-1,2,3,4-tetrahydropyrido[4,3-d]pyrimidin-7-yl)methyl)acrylamide], the IC50 at FGFR1 was more than 0.2 µM; on FGFR4 (setting [1]) it was less than 0.01 µM; at FGFR2, more than 0.2 µM; on FGFR3 it was more than 0.2 µM.
As for `C=CC(=O)NCc1cc2c(cn1)CN(c1c(F)c(OC)cc(OC)c1F)C(=O)N2CCC` [Example 12, N-((3-(2,6-difluoro-3,5-dimethoxyphenyl)-2-oxo-1-propyl-1,2,3,4-tetrahydropyrido[4,3-d]pyrimidin-7-yl)methyl)acrylamide], the 50% inhibitory concentration (IC50) on FGFR1 was more than 0.2 µM; at FGFR4 (setting [1]), less than 0.01 µM; on FGFR2 it was more than 0.2 µM; against FGFR3 it was more than 0.2 µM.
For the compound `C=CC(=O)NCc1cc2c(cn1)CN(c1c(F)c(OC)cc(OC)c1F)C(=O)C21CC1` [Example 1, N-{[2′-(2,6-difluoro-3,5-dimethoxyphenyl)-3′-oxo-2′,3′-dihydro-1′H-spiro[cyclopropane-1,4′-[2,7]naphthyridin]-6′-yl]methyl}acrylamide], the IC50 on FGFR4 (read-out: FGFR4 IC50, pre-incubated for 5 to 10 minutes, ATP 600 uM) is less than 0.01 µM; on FGFR4 (setting [1]) it was less than 0.01 µM.
For `C=CC(=O)NCc1cc2c(cn1)CN(c1c(F)c(OC)cc(OC)c1F)C(=O)N2CC1CC1` [Example 13, N-((1-(cyclopropylmethyl)-3-(2,6-difluoro-3,5-dimethoxyphenyl)-2-oxo-1,2,3,4-tetrahydropyrido[4,3-d]pyrimidin-7-yl)methyl)acrylamide], the IC50 on FGFR1 is 0.03 to 0.2 µM; at FGFR4 (setting [1]), less than 0.01 µM.
As to `C=CC(=O)NCc1cc2c(cn1)CN(c1c(F)c(OC)cc(OC)c1F)C(=O)N2C1CCCC1` [Example 28, N-((1-cyclopentyl-3-(2,6-difluoro-3,5-dimethoxyphenyl)-2-oxo-1,2,3,4-tetrahydropyrido[4,3-d]pyrimidin-7-yl)methyl)acrylamide], the IC50 at FGFR1 was 0.03 to 0.2 µM; at FGFR4 (setting [1]), less than 0.01 µM.
At FGFR4, `C=CC(=O)NCc1cc2c(cn1)CN(c1c(F)c(OC)cc(OC)c1F)C(=O)N2C1CCOCC1` [Example 23, N-((3-(2,6-difluoro-3,5-dimethoxyphenyl)-2-oxo-1-(tetrahydro-2H-pyran-4-yl)-1,2,3,4-tetrahydropyrido[4,3-d]pyrimidin-7-yl)methyl)acrylamide] displayed a half-inhibitory concentration (IC50) of 0.01 to 0.03 µM.
